According to the NIST ThermoML archive (doi:10.1021/je900915p):

Key:
[1] = 298.15 K, 101.33 kPa, Liquid; for viscosity: Capillary tube (Ostwald / Ubbelohde) method
[2] = xn = mol fraction of the nth substance listed; details: 298.15 K, 101 kPa, Liquid; for viscosity: Capillary tube (Ostwald / Ubbelohde) method
[3] = mn = molality of the nth substance listed, in mol/kg; details: 298.15 K, 101 kPa, Liquid; for speed of sound: Pulse-echo method

CC#N [acetonitrile]
[1]
Details | mass density [kg/m3] | viscosity [mPa·s]
– | 776.85 | 0.341

CC#N [acetonitrile] + N#CCCCCC#N
[2], x1 = 1
Details | mass density [kg/m3] | viscosity [mPa·s]
– | 776.85 | 0.341

Cc1ccc2ccc3ccc(C)nc3c2n1.Cc1ccc2ccc3ccc(C)nc3c2n1.[Cu+2].[O-][Cl+3]([O-])([O-])[O-].[O-][Cl+3]([O-])([O-])[O-] [bis-(2,9-dimethyl-1,10-phenanthroline) copper perchlorate] + CC#N
[3]
Details | mass density [kg/m3] | speed of sound [m/s]
m1 = 0.02474 | 792.91 | 1273.2
m1 = 0.03841 | 801.84 | 1274.5
m1 = 0.05937 | 815.69 | 1275.9
m1 = 0.08169 | 830.27 | 1277.3
m1 = 0.1218 | 857.14 | 1279.7

N#CCCCCC#N [hexanedinitrile]
[1]
Details | mass density [kg/m3] | viscosity [mPa·s]
– | 975.26 | 5.99

N#CCCCCC#N [hexanedinitrile] + CC#N
[2]
Details | mass density [kg/m3] | viscosity [mPa·s]
x2 = 0.5 | 892.51 | 1.61
x2 = 0.6 | 880 | 1.41
x2 = 0.7 | 870 | 1.057
x2 = 0.8 | 848.59 | 0.684
x2 = 0.9 | 818.58 | 0.506

O=[N+]([O-])[O-].[Ag+] [silver nitrate] + CC#N
[3]
Details | mass density [kg/m3] | speed of sound [m/s]
m1 = 0.0283 | 785.04 | 1272
m1 = 0.04474 | 789.86 | 1273.5
m1 = 0.06947 | 797.11 | 1275.3
m1 = 0.09727 | 805.38 | 1277.7
m1 = 0.1285 | 814.46 | 1279.5

CC#N.CC#N.CC#N.CC#N.[Cu+].[O-][Cl+3]([O-])([O-])[O-] [tetraacetonitrile copper perchlorate] + CC#N
[3]
Details | mass density [kg/m3] | speed of sound [m/s]
m1 = 0.02538 | 787.25 | 1272.1
m1 = 0.03962 | 793.19 | 1273.7
m1 = 0.0589 | 801.28 | 1275
m1 = 0.08537 | 812.53 | 1276.7
m1 = 0.1254 | 828.76 | 1278.5

CCCC[N+](CCCC)(CCCC)CCCC.O=[N+]([O-])[O-] [tetrabutylammonium nitrate] + CC#N
[3]
Details | mass density [kg/m3] | speed of sound [m/s]
m1 = 0.02174 | 781.56 | 1272.7
m1 = 0.04144 | 785.96 | 1273.7
m1 = 0.06482 | 791.21 | 1275.2
m1 = 0.08753 | 796.37 | 1276.6
m1 = 0.1139 | 802.45 | 1279.3

CCCC[N+](CCCC)(CCCC)CCCC.[O-][Cl+3]([O-])([O-])[O-] [tetrabutylammonium perchlorate] + CC#N
[3]
Details | mass density [kg/m3] | speed of sound [m/s]
m1 = 0.02616 | 783.32 | 1272.4
m1 = 0.04068 | 786.97 | 1273.2
m1 = 0.06312 | 792.62 | 1275.2
m1 = 0.09762 | 801.31 | 1276.8
m1 = 0.1502 | 814.61 | 1278.2
